In patent publication US11084826B2, “RSV antiviral pyrazolo- and triazolo-pyrimidine compounds” (Janssen Sciences Ireland Unlimited Company, priority 2015, dated 2021):

Experiments:
[1] = Cytotoxicity in HeLa cells, ATP content measured with the ATPlite kit; assay type: cell-based; settings: human, TOX HELA pCC50
Method: (§1) Black 384-well clear-bottom microtiter plates (Corning, Amsterdam, The Netherlands) were filled via acoustic drop ejection using the echo liquid handler (Labcyte, Sunnyvale, Calif.). 200 nL of compound stock solutions (100% DMSO) were transferred to the assay plates. 9 serial 4-fold dilutions of compound were made, creating per quadrant the same compound concentration. The assay was initiated by adding 10 μL of culture medium to each well (RPMI medium without phenol red, 10% FBS-heat inactivated, 0.04% gentamycin (50 mg/mL). All addition steps are done by using a multidrop dispenser (Thermo Scientific, Erembodegem, Belgium). Next, rgRSV224 virus (MOI=1) diluted in culture medium was added to the plates. rgRSV224 virus is an engineered virus that includes an additional GFP gene (Hallak LK, Spillmann D, Collins PL, Peeples Me. Glycosaminoglycan sulfation requirements for respiratory syncytial virus infection; Journal of virology (2000), 74(22), 10508-13) and was in-licensed from the NIH (Bethesda, Md., USA). Finally, 20 μL of a HeLa cell suspension (3,000 cells/well) were plated. Medium, virus- and mock-infected controls were included in each test. The wells contain 0.05% DMSO per volume. Cells were incubated at 37° C. in a 5% CO2 atmosphere. Three days post-virus exposure, viral replication was quantified by measuring GFP expression in the cells by an in house developed MSM laser microscope (Tibotec, Beerse, Belgium). The EC50 was defined as the 50% inhibitory concentration for GFP expression. In parallel, compounds were incubated for three days in a set of white 384-well microtiter plates (Corning) and the cytotoxicity of compounds in HeLa cells was determined by measuring the ATP content of the cells using the ATPlite kit (Perkin Elmer, Zaventem, Belgium) according to the manufacturer's instructions. The CC50 was defined as the 50% concentration for cytotoxicity.

rgRSV224 virus = assay: Antiviral activity: inhibition of rgRSV224 (GFP-expressing RSV) replication in HeLa cells, GFP expression read-out; assay type: cell-based, respiratory syncytial virus (RSV); settings: human respiratory syncytial virus, HeLa, read-out: RSV HELA pEC50, rgRSV224 virus (MOI=1) in HeLa cells, GFP read-out (converted)
Method: as §1

C[C@@H]1CCCCCN1C(=O)c1cc(C2(C)CC2)n2nc(-c3ccc(OCC(=O)O)cc3F)cc2n1 (racemic) [Compound F48]
CC50 at 3 days [1]: > 100000 nM | EC50 (rgRSV224 virus): 437 nM | melting point: 204.93 °C

CCc1cc(C(=O)N2CCCCCN2C)nc2cc(-c3ccc(-n4cc(C(=O)O)cn4)cc3F)nn12 [Compound W32]
CC50 at 3 days [1]: > 100000 nM | EC50 (rgRSV224 virus): 219 nM | melting point: 268.79 °C

CNc1cc(C(=O)N2CCCCC[C@H]2C)nc2cc(-c3ccc(/C=C/C(=O)O)cc3F)nn12 [Compound M3]
CC50 at 3 days [1]: > 25100 nM | EC50 (rgRSV224 virus): 251 nM | melting point: 198 to 200 °C

CC1c2ccsc2CCN1C(=O)c1cc(C2(C)CC2)n2nc(-c3ccc(-c4ccc(C(=O)O)cn4)cc3F)cc2n1 (racemic) [Compound F68]
CC50 at 3 days [1]: 51300 nM | EC50 (rgRSV224 virus): 43.7 nM | melting point: 203.36 °C

CCc1cc(C(=O)N2CCCCCC2C)nc2cc(-c3ccc(NC(=O)CCOC)cc3F)nn12 (stereo not drawn) [Compound E7]
CC50 at 3 days [1]: > 25100 nM | EC50 (rgRSV224 virus): 117 nM | melting point: 175 to 180 °C

CCc1cc(C(=O)N2CCCC3(CC=CC3)C2C)nc2cc(-c3ccc(/C=C/C(=O)O)cc3F)nn12 (racemic) [Compound M35]
CC50 at 3 days [1]: 42700 nM | EC50 (rgRSV224 virus): 200 nM | melting point: 206.72 °C

CCc1cc(C(=O)N2CCCCCC2C)nc2cc(-c3ccc(C(=O)O)cc3F)nn12 (stereo not drawn) [Compound K2]
CC50 at 3 days [1]: > 25100 nM | EC50 (rgRSV224 virus): 562 nM | melting point: 210 °C

CCc1cc(C(=O)N2CCCCCC2C)nc2cc(-c3ccc(NC(=O)OCCO)cc3)nn12 (stereo not drawn) [Compound C6]
CC50 at 3 days [1]: > 25100 nM | EC50 (rgRSV224 virus): 537 nM | melting point: 176 to 178 °C

CCc1cc(C(=O)N2CCCCCC2C)nc2cc(-c3ccc(N(C)C)cc3F)nn12 (stereo not drawn) [Compound A6]
CC50 at 3 days [1]: 57500 nM | EC50 (rgRSV224 virus): 724 nM | melting point: 84 °C

CCc1cc(C(=O)N2CCCCCC2C)nc2cc(-c3ccc(C(=O)NCc4ccco4)cc3F)nn12 (stereo not drawn) [Compound L7]
CC50 at 3 days [1]: > 25100 nM | EC50 (rgRSV224 virus): 240 nM | melting point: 168 °C

CCc1cc(C(=O)N2CCCCCC2C)nc2cc(-c3ccc(C(=O)NCCO)cc3F)nn12 (stereo not drawn) [Compound L5]
CC50 at 3 days [1]: > 25100 nM | EC50 (rgRSV224 virus): 158 nM | melting point: 177 °C

CCc1cc(C(=O)N2CCc3ccccc3C2C)nc2cc(-c3ccc(C(=O)NC(C)C(=O)O)cc3F)nn12 (stereo not drawn) [Compound L11]
CC50 at 3 days [1]: > 25100 nM | EC50 (rgRSV224 virus): 631 nM | melting point: 165 to 170 °C

C[C@@H]1CCCCCN1C(=O)c1cc(C2(C)CC2)n2nc(-c3ccc(-n4cc(C(=O)O)cn4)cc3F)cc2n1 [Compound W10]
CC50 at 3 days [1]: 52500 nM | EC50 (rgRSV224 virus): 30.9 nM | melting point: 239.85 °C

CCc1cc(C(=O)N2CCCCCC2C)nc2cc(-c3ccc(NC(=O)Cc4ccncc4)cc3)nn12 (stereo not drawn) [Compound E23]
CC50 at 3 days [1]: > 25100 nM | EC50 (rgRSV224 virus): 646 nM | melting point: 232 to 234 °C

CCc1cc(C(=O)N2CCCCCN2C)nc2cc(-c3ccc(-c4ccc(C(=O)O)cn4)cc3F)nn12 [Compound F35]
CC50 at 3 days [1]: > 100000 nM | EC50 (rgRSV224 virus): 162 nM | melting point: 268.78 °C

CCc1cc(C(=O)N2CCCCCC2C)nc2cc(-c3cc4cccnc4cc3F)nn12 (stereo not drawn) [Compound A24]
CC50 at 3 days [1]: > 25100 nM | EC50 (rgRSV224 virus): 302 nM | melting point: 145 to 150 °C

CC1c2ccsc2CCN1C(=O)c1cc(C2CC2)n2nc(-c3ccc(N4CC[C@H](C(=O)O)C4)cc3F)cc2n1 (single isomer, unassigned) [Compound W37]
CC50 at 3 days [1]: 45700 nM | EC50 (rgRSV224 virus): 5.62 nM | melting point: 231.1 °C

CCc1cc(C(=O)N2CCCCC[C@H]2C)nc2cc(-c3ccc(C(=O)O)cc3F)nn12 [Compound K5]
CC50 at 3 days [1]: > 25100 nM | EC50 (rgRSV224 virus): 309 nM | melting point: 148 °C

CCCNC(=O)c1ccc(-c2cc3nc(C(=O)N4CCCCCC4C)cc(CC)n3n2)c(F)c1 (stereo not drawn) [Compound L3]
CC50 at 3 days [1]: > 25100 nM | EC50 (rgRSV224 virus): 240 nM | melting point: 188 °C

C=CCC(=O)Nc1ccc(-c2cc3nc(C(=O)N4CCCCCC4C)cc(CC)n3n2)cc1 (stereo not drawn) [Compound E21]
CC50 at 3 days [1]: > 25100 nM | EC50 (rgRSV224 virus): 603 nM | melting point: 243 to 244 °C

CCc1cc(C(=O)N2CCCCC2C)nc2cc(-c3ccc(-c4ccncc4)cc3)nn12 (stereo not drawn) [Compound F1]
CC50 at 3 days [1]: 38000 nM | EC50 (rgRSV224 virus): 871 nM | melting point: 150 to 151 °C

CCc1cc(C(=O)N2CCCCCC2C)nc2cc(-c3ccc(-c4cccnc4)cc3F)nn12 (stereo not drawn) [Compound F4]
CC50 at 3 days [1]: > 25100 nM | EC50 (rgRSV224 virus): 724 nM | melting point: 167 to 168 °C

C[C@@H]1CCCCCN1C(=O)c1cc(C2(C)COC2)n2nc(-c3ccc(-n4cc(C(=O)O)cn4)cc3F)cc2n1 (racemic) [Compound W36]
CC50 at 3 days [1]: > 25100 nM | EC50 (rgRSV224 virus): 151 nM | melting point: 223.2 °C

C[C@@H]1CCCCCN1C(=O)c1cc(-c2cnn(C)c2)n2nc(-c3ccc(/C=C/C(=O)O)cc3F)cc2n1 [Compound M30]
CC50 at 3 days [1]: 28200 nM | EC50 (rgRSV224 virus): 40.7 nM | melting point: 163 °C

CCc1cc(C(=O)N2CCn3cccc3C2C)nc2cc(-c3ccc(/C=C/C(=O)O)cc3F)nn12 (single isomer, unassigned) [Compound M44]
CC50 at 3 days [1]: > 25100 nM | EC50 (rgRSV224 virus): 18.2 nM | melting point: 127.94 °C

CCc1cc(C(=O)N2CCCCCC2C)nc2cc(-c3ccc(NC(=O)C4(C)CC4)cc3F)nn12 (stereo not drawn) [Compound E8]
CC50 at 3 days [1]: > 25100 nM | EC50 (rgRSV224 virus): 468 nM | melting point: 225 to 230 °C

CCc1cc(C(=O)N2CCCCCC2C)nc2cc(-c3ccc(C#N)cc3F)nn12 (stereo not drawn) [Compound H5]
CC50 at 3 days [1]: > 25100 nM | EC50 (rgRSV224 virus): 813 nM | melting point: 95 °C

CCc1cc(C(=O)N2CCCCCC2C)nc2cc(-c3ccc(-c4cn(C)c(C)n4)cc3F)nn12 (stereo not drawn) [Compound F10]
CC50 at 3 days [1]: > 25100 nM | EC50 (rgRSV224 virus): 692 nM | melting point: 118 to 119 °C

C[C@@H]1c2ccccc2CCN1C(=O)c1cc(C2CC2)n2nc(-c3ccc(-n4cc(C(=O)O)cn4)cc3F)cc2n1 [Compound W33]
CC50 at 3 days [1]: 57500 nM | EC50 (rgRSV224 virus): 16.2 nM | melting point: 257.75 °C

CCc1cc(C(=O)N2CCn3nccc3C2C)nc2cc(-c3ccc(/C=C/C(=O)O)cc3F)nn12 (stereo not drawn) [Compound M41]
CC50 at 3 days [1]: > 25100 nM | EC50 (rgRSV224 virus): 794 nM | melting point: 225 to 230 °C

CCc1cc(C(=O)N2CCCCCC2C)nc2cc(-c3ccc(S(N)(=O)=O)cc3F)nn12 (stereo not drawn) [Compound P2]
CC50 at 3 days [1]: > 25100 nM | EC50 (rgRSV224 virus): 646 nM | melting point: 229 °C

CC1c2ccccc2CCN1C(=O)c1cc(N(C)C)n2nc(-c3ccc(/C=C/C(=O)O)cc3F)cc2n1 (stereo not drawn) [Compound M10]
CC50 at 3 days [1]: 20000 nM | EC50 (rgRSV224 virus): 47.9 nM | melting point: 243 to 245 °C

CCc1cc(C(=O)N2CCCCCC2C)nc2cc(-c3ccc4ncccc4c3)nn12 (stereo not drawn) [Compound A11]
CC50 at 3 days [1]: > 25100 nM | EC50 (rgRSV224 virus): 646 nM | melting point: 170 to 175 °C

C[C@@H]1c2ccsc2CCN1C(=O)c1cc(C2(C)CC2)n2nc(-c3ccc([C@@H]4C[C@H]4C(=O)O)cc3F)cc2n1 [Compound O21]
CC50 at 3 days [1]: 55000 nM | EC50 (rgRSV224 virus): 11 nM | melting point: 207.61 °C

CCc1cc(C(=O)N2CCCCCC2C)nc2cc(-c3ccc(NC(=O)CC#N)cc3F)nn12 (stereo not drawn) [Compound E6]
CC50 at 3 days [1]: > 25100 nM | EC50 (rgRSV224 virus): 166 nM | melting point: 245 to 250 °C

CC1c2ccsc2CCN1C(=O)c1cc(C2CC2)n2nc(-c3ccc(-n4cc(C(=O)O)cn4)cc3F)cc2n1 (stereo not drawn) [Compound W41]
CC50 at 3 days [1]: > 25100 nM | EC50 (rgRSV224 virus): 13.2 nM | melting point: 257.83 °C

CCc1cc(C(=O)N2CCCCC[C@H]2C)nc2cc(-c3ccc(-n4cc(C(=O)O)c(Cl)n4)cc3F)nn12 [Compound W35]
CC50 at 3 days [1]: > 25100 nM | EC50 (rgRSV224 virus): 191 nM | melting point: 145.75 °C

C[C@@H]1CCCCCN1C(=O)c1cc(C2(C)CC2)n2nc(-c3ccc4cc(C(=O)O)c(=O)oc4c3F)cc2n1 (racemic) [Compound F49]
CC50 at 3 days [1]: 57500 nM | EC50 (rgRSV224 virus): 26.3 nM | melting point: 218.14 °C

CCc1cc(C(=O)N2CCCCC[C@H]2C)nc2cc(-c3ccc(N4C[C@@H]5CC(C(=O)O)=C[C@@H]5C4)cc3F)nn12 [Compound W12]
CC50 at 3 days [1]: 63100 nM | EC50 (rgRSV224 virus): 204 nM | melting point: 252.19 °C

CCc1cc(C(=O)N2CCCCCC2C)nc2cc(-c3ccc(NC(=O)C4CC4)cc3F)nn12 (stereo not drawn) [Compound E11]
CC50 at 3 days [1]: > 25100 nM | EC50 (rgRSV224 virus): 631 nM | melting point: 145 °C

CCc1cc(C(=O)N2CCc3sccc3[C@H]2C)nc2cc(-c3cccc(/C=C/C(=O)O)c3F)nn12 (single isomer, unassigned) [Compound M49]
CC50 at 3 days [1]: 41700 nM | EC50 (rgRSV224 virus): 10 nM | melting point: 262.19 °C

CCc1cc(C(=O)N2CCCc3ccccc3C2C)nc2cc(-c3ccc(C(=O)O)cc3F)nn12 (stereo not drawn) [Compound K8]
CC50 at 3 days [1]: > 25100 nM | EC50 (rgRSV224 virus): 437 nM | melting point: 105 to 110 °C
